This assay deals with T1, PDE2A (Rattus norvegicus, UniProt Q01062).
T1 construct: from tissue; host or cells: sagittal brain sections of female SPRD rats
T1 sequence (Q01062 1-928): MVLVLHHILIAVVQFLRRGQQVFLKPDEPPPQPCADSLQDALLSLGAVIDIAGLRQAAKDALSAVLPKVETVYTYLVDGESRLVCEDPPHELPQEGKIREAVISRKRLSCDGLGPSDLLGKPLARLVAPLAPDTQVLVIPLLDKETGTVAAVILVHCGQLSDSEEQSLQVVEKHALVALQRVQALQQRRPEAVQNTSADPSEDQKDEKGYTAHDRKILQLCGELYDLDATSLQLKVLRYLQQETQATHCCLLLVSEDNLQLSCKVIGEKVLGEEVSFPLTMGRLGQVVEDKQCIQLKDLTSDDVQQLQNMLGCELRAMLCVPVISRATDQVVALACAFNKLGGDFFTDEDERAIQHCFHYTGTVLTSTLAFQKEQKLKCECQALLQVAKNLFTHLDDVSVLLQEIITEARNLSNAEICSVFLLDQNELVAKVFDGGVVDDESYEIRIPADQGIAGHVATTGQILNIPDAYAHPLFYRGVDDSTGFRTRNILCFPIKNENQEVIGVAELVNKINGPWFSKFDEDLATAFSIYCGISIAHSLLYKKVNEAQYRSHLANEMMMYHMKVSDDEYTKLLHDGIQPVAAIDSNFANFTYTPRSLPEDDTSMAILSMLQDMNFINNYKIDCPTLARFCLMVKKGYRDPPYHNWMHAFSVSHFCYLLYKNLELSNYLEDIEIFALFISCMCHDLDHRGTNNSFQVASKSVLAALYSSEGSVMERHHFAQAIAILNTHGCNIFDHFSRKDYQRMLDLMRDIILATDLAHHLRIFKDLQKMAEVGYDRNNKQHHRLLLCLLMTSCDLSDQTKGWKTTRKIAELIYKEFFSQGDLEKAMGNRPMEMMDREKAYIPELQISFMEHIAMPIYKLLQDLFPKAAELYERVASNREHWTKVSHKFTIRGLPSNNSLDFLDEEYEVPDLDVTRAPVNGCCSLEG
As to the kind of experiment: in vitro autoradiography on sagittal rat brain sections. Format: binding. Conditions: sagittal rat brain slices, ~1 MBq/mL, 60 min incubation. How it is done: In vitro autoradiographic studies were accomplished by incubating sagittal sections of rat brain with [^18F]TA3 or [^18F]TA4. […] The images shown in Figure 6 indicate region-specific accumulation of both radioligands [^18F]TA3 and [^18F]TA4, which is consistent with the distribution pattern of PDE2A protein in rat brain [9, 11]. Therefore, we assume that the novel radioligands might be appropriate for in vitro imaging of PDE2A.
Frozen sagittal brain sections obtained from female SPRD rats (10–12 weeks old) were thawed, dried in a stream of cold air, and preincubated for 20 min with incubation buffer (50 mM TRIS-HCl, pH 7.4, 120 mM NaCl, 5 mM KCl, 2 mM CaCl2, 5 mM MgCl2) at ambient temperature. Brain sections were incubated with ~1 MBq/mL of [^18F]TA3 or [^18F]TA4 in incubation buffer for 60 min at ambient temperature. Afterwards sections were washed twice with 50 mM TRIS-HCl (pH 7.4) for 2 min at 4 °C, dipped briefly in ice-cold deionized water, dried in a stream of cold air and exposed for 60 min to an ^18F-sensitive image plate that was analyzed afterwards using an image plate scanner (HD-CR 35; Duerr NDT GmbH, Bietigheim Bissingen, Germany).

From article PMC6272448, “Synthesis, ^18F-Radiolabelling and Biological Characterization of Novel Fluoroalkylated Triazine Derivatives for in Vivo Imaging of Phosphodiesterase 2A in Brain via Positron Emission Tomography” (Molecules, 2015) come the findings set out here.

SMILES strings stand for the structures.

As to `COc1ccc2nnc3c(C)nc(-c4cc(OCCCC[18F])ccc4F)n3c2n1` [[^18F]TA4], the “regional binding in autoradiography” value is “also binds to the olfactory tubercle, colliculi and partly to cerebellum”.

For `COc1ccc2nnc3c(C)nc(-c4cc(OCCC[18F])ccc4F)n3c2n1` [[^18F]TA3], the “regional binding in autoradiography” value was “higher binding densities in cortex and striatum than in cerebellum”.
